Data from US9040542B2, “Solid forms of gyrase inhibitor (R)-1-ethyl-3-[6-fluoro-5-[2-(1-hydroxy-1-methyl-ethyl)pryimidin-5-yl]-7-(tetrahydrofuran-2-yl)-1H-benzimidazol-2-yl]urea” (priority 2011, dated 2015).
In brackets after ≈: the same amount, converted by molar mass.

What was measured:
[1] = test system: M. kansasii 316; test: MIC, Protocol #4 Mycobacterium species; format: cell-based
[2] = test system: M. abscessus BB3; test: MIC, Protocol #4 Mycobacterium species; format: cell-based
[3] = test system: M. abscessus MC 6025; test: MIC, Protocol #4 Mycobacterium species; format: cell-based
[4] = test system: M. abscessus LT 949; test: MIC, Protocol #4 Mycobacterium species; format: cell-based
[5] = test system: Clostridium difficile ATCC BAA-1382; test: MIC, Protocol #3 agar dilution; format: cell-based
[6] = test system: Staphylococcus aureus ATCC 29213; test: MIC, Protocol #1 microdilution broth; format: cell-based
[7] = test system: Bacillus cereus ATCC 10987; test: MIC, Protocol #1 microdilution broth; format: cell-based
[8] = test system: Neisseria gonorrhoeae ATCC 49226; test: MIC, Protocol #3 agar dilution; format: cell-based
[9] = test system: Nocardia caviae 2497; test: MIC, Protocol #4 Mycobacterium species; format: cell-based
Experimental: Protocol #4. MIC Determination Procedure for Mycobacterium Species
Inoculum Preparation for M. kansasii, M. avium, M. abscessus and Nocardia spc.: • 1. Used prepared frozen stock of culture or a fresh culture grown in 7H10 broth at a concentration of 10 Klett or 5×10^7/ml. • 2. Prepared a 1:20 dilution by removing 1.0 ml of the culture stock and added it to 19 ml of 7H10 broth (final concentration 2.5×10^6 cfu/ml). • 3. From this dilution prepared a 1:20 dilution, removed 1 ml and added it to 19 ml of fresh broth (final suspension).
Plate Preparation: • 1. Labeled plates. • 2. Added 50 μl of 7H10 broth +10% OADC to all wells being utilized for MIC determination using a multichannel electronic pipettor. • 3. Prepared stock solutions of drugs (e.g. 1 mg/ml concentration) to be tested. • 4. Thawed and diluted frozen stock solutions using 7H10 broth +10% OADC to obtain a working solution 4× the maximum concentration tested (e.g. final concentration 32 μg/ml, highest concentration tested was 8 μg/ml). Dilutions were made from the stock solution. To start at a concentration of 1 μg/ml, the drugs were prepared at 4 μg/ml, so the starting concentration was 1 μg/ml. Removed 25 μl of the 1 mg/ml stock and added to 6.2 ml of broth. All dilutions of drugs were done in broth. • 5. Added 50 μl of the 4× working solution to the first well of the designated row. […] Read visually and recorded the results.

[10] = test system: Clostridium perfringens; test: microbe, parasite or virus in culture; format: cell-based
[11] = test system: Bacillus subtilis (168) ATCC 6051; test: MIC, Protocol #1 microdilution broth; format: cell-based
[12] = test system: M. abscessus MC 6136; test: MIC, Protocol #4 Mycobacterium species; format: cell-based
[13] = test system: M. abscessus BB5; test: MIC, Protocol #4 Mycobacterium species; format: cell-based
[14] = test system: Enterococcus faecium ATCC 49624; test: MIC, Protocol #1 microdilution broth; format: cell-based
[15] = test system: M. abscessus MC 5605; test: MIC, Protocol #4 Mycobacterium species; format: cell-based
[16] = test system: M. tuberculosis Erdman ATCC 35801; test: Protocol #5 Mycobacterium tuberculosis Serum Shift MIC Assay; format: cell-based
[17] = test system: Streptococcus pneumoniae; test: MIC90 panel, Protocol #1 microdilution broth; format: cell-based; conditions: 67 isolates
[18] = test system: Bacillus cereus ATCC 14579; test: MIC, Protocol #1 microdilution broth; format: cell-based
[19] = test system: M. abscessus BB1; test: MIC, Protocol #4 Mycobacterium species; format: cell-based
[20] = test system: M. tuberculosis H37Rv ATCC 25618; test: MIC, Protocol #4 Mycobacterium species; format: cell-based
[21] = test system: M. abscessus BB8; test: MIC, Protocol #4 Mycobacterium species; format: cell-based
[22] = Stability data of solid forms on storage; format: physicochemical
[23] = test system: M. avium Far; test: MIC, Protocol #4 Mycobacterium species; format: cell-based
[24] = test system: Staphlococcus epidermidis; test: MIC90 panel, Protocol #1 microdilution broth; format: cell-based, Staphylococcus epidermidis; conditions: 35 isolates
[25] = test system: Enterococcus faecalis ATCC 29212; test: MIC, Protocol #1 microdilution broth; format: cell-based; conditions: Enterococcus faecalis ATCC 29212, with Laked Horse Blood
[26] = test system: Neisseria gonorrhoeae; test: MIC90 panel, Protocol #3 agar dilution; format: cell-based; conditions: 13 isolates
[27] = test system: M. abscessus BB2; test: MIC, Protocol #4 Mycobacterium species; format: cell-based
[28] = test system: Streptococcus pneumoniae ATCC 10015; test: MIC, Protocol #1 microdilution broth; format: cell-based; conditions: Streptococcus pneumoniae ATCC 10015, with Laked Horse Blood
[29] = test system: M. kansasii 303; test: MIC, Protocol #4 Mycobacterium species; format: cell-based
[30] = test system: M. abscessus MC 5931; test: MIC, Protocol #4 Mycobacterium species; format: cell-based
[31] = test system: M. kansasii 379; test: MIC, Protocol #4 Mycobacterium species; format: cell-based
[32] = test system: M. avium 3404.4; test: MIC, Protocol #4 Mycobacterium species; format: cell-based
[33] = test system: M. abscessus MC 5922; test: MIC, Protocol #4 Mycobacterium species; format: cell-based
[34] = test system: Pseudomonas aeruginosa PAO750; test: MIC, Protocol 2 microdilution broth, Gram negatives; format: cell-based
Description: (§1) The specific protocols used were as follows:
(§2) Drug dilutions, inoculation, MIC determination: • 1.

[35] = test system: Escherichia coli CHE30; test: as above; format: cell-based
Description: as §1, §2

CCNC(=O)Nc1nc2cc(-c3cnc(C(C)(C)O)nc3)c(F)c([C@H]3CCCO3)c2[nH]1 [Compound 24, 1-ethyl-3-[6-fluoro-5-[2-(1-hydroxy-1-methyl-ethyl)pyrimidin-5-yl]-7-[(2R)-tetrahydrofuran-2-yl]-1H-benzimidazol-2-yl]urea]
MIC [1]: 0.06 µg/mL (≈ 0.14 µM)
MIC [2]: 0.5 µg/mL (≈ 1.17 µM)
MIC [3]: 0.75 µg/mL (≈ 1.75 µM)
MIC [4]: 1 µg/mL (≈ 2.33 µM)
MIC [5]: 0.38 µg/mL (≈ 0.887 µM)
MIC ([6]; Staphylococcus aureus ATCC 29213): 0.021 µg/mL (≈ 0.049 µM)
MIC ([6]; Staphylococcus aureus ATCC 29213 with Human Serum): 0.15 µg/mL (≈ 0.35 µM)
MIC ([6]; Staphylococcus aureus ATCC 29213 with Mouse Serum): 0.5 µg/mL (≈ 1.17 µM)
MIC ([6]; Staphylococcus aureus ATCC 29213 with Rat Serum): 0.18 µg/mL (≈ 0.42 µM)
MIC [7]: 0.031 µg/mL (≈ 0.0724 µM)
MIC [8]: 1 µg/mL (≈ 2.33 µM)
MIC [9]: 0.125 µg/mL (≈ 0.292 µM)
MIC90 [10]: 0.5 µg/mL (≈ 1.17 µM)
MIC Range ([10]; 12 isolates, Protocol 3): 0.12 to 0.5 µg/mL
MIC [11]: 4 µg/mL (≈ 9.34 µM)
MIC [12]: 0.5 µg/mL (≈ 1.17 µM)
MIC [13]: 0.5 µg/mL (≈ 1.17 µM)
MIC ([14]; Enterococcus faecium ATCC 49624): 0.11 µg/mL (≈ 0.257 µM)
MIC ([14]; Enterococcus faecium ATCC 49624 with Laked Horse Blood): 0.11 µg/mL (≈ 0.257 µM)
MIC [15]: 1.5 µg/mL (≈ 3.5 µM)
MIC ([16]; M. tuberculosis Erdman ATCC 35801): 0.03 µg/mL
MIC ([16]; M. tuberculosis Erdman ATCC 35801 with Mouse Serum): 0.5 µg/mL
MIC90 [17]: 0.015 µg/mL (≈ 0.035 µM)
MIC Range [17]: 8 to 30 ng/mL
MIC [18]: 0.031 µg/mL (≈ 0.0724 µM)
MIC [19]: 2 µg/mL (≈ 4.67 µM)
MIC [20]: 0.015 µg/mL (≈ 0.035 µM)
MIC [21]: 0.5 µg/mL (≈ 1.17 µM)
chemical and physical stability ([22]; 25° C./60% RH, one week time point): chemically and physically unstable
chemical stability ([22]; 40° C./ambient, t=2 weeks): chemically unstable
MIC [23]: 0.23 µg/mL (≈ 0.537 µM)
MIC Range [24]: 8 to 30 ng/mL
MIC90 ([24]; Staphylococcus epidermidis): 0.03 µg/mL (≈ 0.07 µM)
MIC [25]: 0.028 µg/mL (≈ 0.0653 µM)
MIC90 [26]: 0.25 µg/mL (≈ 0.583 µM)
MIC Range [26]: 0.12 to 0.25 µg/mL
MIC [27]: 1 µg/mL (≈ 2.33 µM)
MIC [28]: 0.01 µg/mL (≈ 0.0233 µM)
MIC [29]: 0.03 µg/mL (≈ 0.07 µM)
MIC [30]: 0.5 µg/mL (≈ 1.17 µM)
MIC [31]: < 0.015 µg/mL
MIC [32]: 0.23 µg/mL (≈ 0.537 µM)
MIC [33]: 0.25 µg/mL (≈ 0.583 µM)
MIC [34]: 0.25 µg/mL (≈ 0.583 µM)
MIC [35]: 8 µg/mL (≈ 18.7 µM)
